Data: patent publication US20100041757A1, “N-ARYL-HYDROXYALKYLIDENE-CARBOXAMIDE COMPOUNDS AND THEIR USE” (priority 2006, published 2010)

Columns and labels:
[1] = tested on: skin of the upper lip (philtrum); assay: Cooling sensation bioassay, ointment applied to skin above the upper lip (philtrum) of test subjects; format: in vivo, human; conditions: for duration of action: applied to the skin of test subjects; for qualitative aspects of sensation (coolness and not cold, duration at least three hours): topical, philtrum method
From the text: A reliable place for topical application is on the upper lip, above the vermillion border of the lips, on the philtrum, lateral to the philtrum until the nasolabial folds, and on the lower nostrils. This part of the face is known to be densely innervated with cold receptors, second only to the surface of eyeball. Tingling, cool and cold sensations may be experienced and rated for intensity. This test is quite accurate for predicting the cooling activity of candidate N-arylshydroxyalkylidene-cCarboxamide drugs, but most importantly, it also measures the duration of drug action on the sensory receptors. The duration of action is not measured in a receptor assay and is difficult to quantify on the tongue because of the dynamic fluid conditions in the oral cavity and the presence of taste factors that affect thermosensation.
For bioassay of […] on the skin, CPS-195 was stirred and dissolved in warm liquid Aquaphor® ointment to yield ointment concentrations of 0.25, 0.5, 1, and 2% wt/vol. After cooling, 50 to 80 mg of the solid ointment was placed on the tip of a plastic stick and applied to the skin above the upper lip, on the philtrum, and lateral to the philtrum up to the nasolabial folds, of test subjects and the onset and duration of cooling sensations recorded. Each of the compounds produce cooling on the skin of the upper lip with duration of action of more than 1 hour.
The intensity of the subjective skin sensation is rated as 0, 1, 2 or 3 with 0 as no change, 1 as slight coolness, cold, or tingling, 2 as clear cut signal of coolness, cold, or tingling, and 3 as robust cooling or cold. The interval for recording sensations is at 5 minute intervals, until two successive zeroes are obtained. The results are averaged values of 4 to 6 separate trials in the same individual. The data were plotted using SigmaPlot (Systat Software, Point Richmond Calif.) and a smoothing function with a negative exponential was used for analysis and statistical fit of the results.
The onset of drug action was taken as the time to reach 2 units of coolness intensity, and offset of drug action was the time when coolness intensity drops below 1.5, after previously surpassing 2 units. The duration of cooling action was defined as the offset time minus the onset time, which in this case averaged 2 minutes. The quality of the sensation was also noted, such as refreshing coolness, cold, or if the sensation was accompanied by irritation (stinging or burning). The quality of the sensation was not rated for intensity.

oral cavity = assay: Cooling sensation after placement on the dorsal surface of the tongue; format: in vivo, human
Method: The onset of cooling was 3 to 5 minutes, but once the effect was established, the entire oral cavity and pharyngeal surfaces (oro-, laryngo- and naso-pharynx) felt cool.
CPS-195 was formulated as a 3% wt/wt tablet in Ludipress®, a rapidly disintegrating direct compression excipient made by BASF Corp. The tablet size was 60 mg so each unit contained 1.8 mg of CPS-195. […] For example, applied onto the mucous membranes of the oral cavity it can soothe the discomforts of pharyngitis/laryngitis, oral mucositis, oral ulcers, and idiopathic facial pain. In the pharynx and upper airways, CPS-195 may be used to reduce or to treat cough, asthma, and chronic obstructive pulmonary disease. On the skin, CPS-195 can be used to treat the discomfort of severe acne, eczema, diabetic ulcers, and the like.

TRP-M8 receptor = target: T1, TRP-M8 receptor (Homo sapiens, UniProt Q7Z2W7); assay: TRP-M8 receptor assay; format: cell-based
T1 construct: expressed in transfected cells
From the text: Pain was defined by Sir Charles Sherrington as “the psychic adjunct of an imperative protective reflex”. Psychic events such as cooling, irritation, itch, and pain cannot be expressed by animals (animals cannot say “ouch” or that “it itches”) so the sensory effects of chemicals must be indirectly inferred. Receptor assays, based on cells transfected with the gene for TRP-M8 or TRP-A1, may be used as a model of sensory processes. […] But, as noted below, these assays give no information on how long and for what quality of sensations is occurring on human subjects. The best information on the pharmacological properties of these chemicals must therefore be derived from human experiment.
The sensations are more cold than cool, and have the sting and harshness of high concentrations of menthol. […] CPS-112 was therefore a disappointment in spite of its high potency on the receptor assay.

[2] = 2 mg on the dorsal surface of the tongue

T1 sequence (Q7Z2W7 whole entry): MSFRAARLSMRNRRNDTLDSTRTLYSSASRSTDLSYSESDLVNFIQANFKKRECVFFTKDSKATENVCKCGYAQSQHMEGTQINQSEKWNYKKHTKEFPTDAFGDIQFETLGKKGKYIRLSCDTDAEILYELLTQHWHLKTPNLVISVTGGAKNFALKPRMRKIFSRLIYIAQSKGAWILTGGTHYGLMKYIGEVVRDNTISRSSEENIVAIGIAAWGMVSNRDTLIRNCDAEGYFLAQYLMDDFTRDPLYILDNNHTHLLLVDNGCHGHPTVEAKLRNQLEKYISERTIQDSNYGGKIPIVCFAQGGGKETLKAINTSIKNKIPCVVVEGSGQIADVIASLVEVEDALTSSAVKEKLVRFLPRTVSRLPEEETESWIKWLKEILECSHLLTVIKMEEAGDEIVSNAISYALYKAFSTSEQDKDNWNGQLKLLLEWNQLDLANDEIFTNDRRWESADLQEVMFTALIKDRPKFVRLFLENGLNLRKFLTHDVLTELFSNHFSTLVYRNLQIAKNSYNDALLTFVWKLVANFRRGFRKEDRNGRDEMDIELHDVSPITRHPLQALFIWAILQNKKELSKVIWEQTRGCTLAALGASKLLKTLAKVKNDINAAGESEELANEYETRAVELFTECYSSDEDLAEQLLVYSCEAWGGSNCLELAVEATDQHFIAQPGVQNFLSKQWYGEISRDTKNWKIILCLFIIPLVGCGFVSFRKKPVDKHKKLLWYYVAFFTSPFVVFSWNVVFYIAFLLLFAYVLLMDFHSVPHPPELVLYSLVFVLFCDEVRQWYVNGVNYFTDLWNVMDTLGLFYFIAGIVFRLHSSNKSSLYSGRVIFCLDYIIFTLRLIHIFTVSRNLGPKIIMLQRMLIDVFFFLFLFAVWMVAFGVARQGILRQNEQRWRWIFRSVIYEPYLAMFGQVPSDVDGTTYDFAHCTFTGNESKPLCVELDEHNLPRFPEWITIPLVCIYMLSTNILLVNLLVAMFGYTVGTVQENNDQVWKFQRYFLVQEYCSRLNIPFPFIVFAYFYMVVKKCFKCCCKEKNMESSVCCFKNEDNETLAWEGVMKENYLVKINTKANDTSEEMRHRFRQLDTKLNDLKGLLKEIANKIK

With `CC1CCC(C(C)C)C(O)C1` (single isomer, unassigned; (-)) [(−)-menthol, reference compound] the duration of action [1] was “less than one”.
In the case of `CC(C)[C@@H]1CC[C@@H](C)C[C@H]1C(=O)N(C)CC(O)c1cccc(O)c1` (stereo in doubt) [CPS-195, 2-isopropyl-5-methyl-cyclohexanecarboxylic acid (2′-hydroxy-2′-[3″-hydroxy-phenyl]-ethyl)-N-methyl-amide], the “duration of action (coolness and cold on skin of the upper lip)” value ([1]; 0.25% wt/vol in Aquaphor ointment) is reported as 1.2 h, the “duration of action (coolness and cold on skin of the upper lip)” value ([1]; 0.5% wt/vol in Aquaphor ointment) is reported as 1.8 h and the “duration of action (coolness and cold on skin of the upper lip)” value ([1]; 1% wt/vol in Aquaphor ointment) is reported as 2.4 h. For the same molecule, the “duration of action (coolness and cold on skin of the upper lip)” value ([1]; 2% wt/vol in Aquaphor ointment) was 5.2 h, the “potency compared to CPS-179, CPS-190 and CPS-192” value ([1]; skin of the upper lip) was “most potent” and the “duration of cooling sensation within the oral cavity” value (oral cavity; [2]) was “over 4 hours”. For the same molecule, the “quality of cool/cold sensations” value (oral cavity; [2]) was “pleasant and not aversive” and the duration of action (oral cavity; single dose of 2 mg applied to the surface of the tongue or on to the philtrum) was about 4 h.
In the case of `CC(C)[C@@H]1CC[C@@H](C)C[C@H]1C(=O)Nc1ccc(S(=O)(=O)Nc2ncccn2)cc1` [CPS-125], the “qualitative aspects of sensation (coolness and not cold, duration at least three hours)” value [1] is reported as “met”.
In the case of `CCOC(=O)CNC(=O)[C@@H]1C[C@H](C)CC[C@H]1C(C)C` [WS-5, reference compound], the duration of action [1] is reported as “less than one”.
With `COc1ccc(NC(=O)[C@@H]2C[C@H](C)CC[C@H]2C(C)C)cc1` [WS-12, reference compound] the “time at which action is dissipated” value ([1]; 2% preparation) was “one”, the “time at which duration of action peaks” value ([1]; 2% preparation) was 30 min and the “sensation elicited on the philtrum and its environs” value ([1]; applied at 1 to 2%) was “strong cold sensations”. For the same molecule, the “qualitative aspects of sensation (coolness and not cold, duration at least three hours)” value [1] was “sensations of cold, but of brief duration” and the “active concentrations on the TRP-M8 receptor assay” value (TRP-M8 receptor) was “sub-micromolar”.
